What was measured:
Leishmania tropica [1] = test: Microscopy of Leishmania photolysis after PC sensitization and red light; assay type: cell-based; details: PC1/PC2: followed by red light; PC3/PC4: with or without red light
Procedure: (§1) Leishmania were suspended to 5×10^7-10^8 cells ml^−1 in HBSS-BSA for exposure to serial dilutions of PCs 1-4 in the dark overnight. Controls included cells exposed to diluent alone. J774 macrophages were treated as monolayer in HBSS-BSA or culture medium under otherwise the same conditions. All cultures were kept in the dark for various time periods up to 24 hrs.
Control and PC-sensitized Leishmania were washed and suspended in HBSS-BSA. The cell suspensions in 24-well culture plates and monolayers of J774 macrophages in 25 cm^2 TC flasks were exposed from the bottom to red light (wavelengths >650 nm) via a red filter (Smith-Victor Co., Barlett, Ill., USA; part #650021) over a light box for 20-30 min at a fluence of 1-2 J cm^2.
Nikon Eclipse 80i and TE2000-S microscopes with CCD cameras were used with Metamorphosis (version 6.1) or NIS Elements version AR 4.20.01 software for image capture and analysis. Concentrated cells (˜3 μl) on a glass slide under an 18 mm^2 glass coverslip were first scanned under phase contrast to localize cells. […] GFP/CFSE fluorescent Leishmania were further examined by using the FITC filter set. Images captured under different settings were merged by using the software programs mentioned. […]

Leishmania tropica [2] = test: Leishmania uptake of PCs by fluorescence microscopy; assay type: cell-based; details: fluorescent microscopy, Cy5 filter, exposure in the dark
Procedure: as §1
Nikon Eclipse 80i and TE2000-S microscopes with CCD cameras were used with Metamorphosis (version 6.1) or NIS Elements version AR 4.20.01 software for image capture and analysis. Concentrated cells (˜3 μl) on a glass slide under an 18 mm^2 glass coverslip were first scanned under phase contrast to localize cells. […] GFP/CFSE fluorescent Leishmania were further examined by using the FITC filter set. Images captured under different settings were merged by using the software programs mentioned. The filter sets (Chroma Technology Co., Brattleboro, Vt.) used were: (1) HQ620/60 (620-nm exciter), Q660LP (660-nm dichroic), and HQ700/80 (700-nm emitter) for phthalocyanines; and (2) HQ480/40 (480-nm exciter), Q505LP (505-nm dichroic), and HQ535/50 (535-nm emitter) for GFP and CFSE.

triethylene glycol substituted Zn(II)-phthalocyanine [PC4]
motility and structural integrity after PC sensitization (Leishmania tropica [1]): retained their motility and cellular integrity | uptake by Leishmania (PC fluorescence in cells) (Leishmania tropica [2]): no uptake

From patent US20170042989A1, “PHOTOSENSITIZED TRYPANOSOMATIDS AND VACCINE COMPOSITIONS THEREOF” (ROSALIND FRANKLIN UNIVERSITY OF MEDICINE AND SCIENCE, priority 2015, published 2017)
